Laboratory results published in paper PMC3210414 (Nature structural & molecular biology, 2011).

Key:
[1] = target: EF-Tu (T. thermophilus) (Thermus thermophilus, UniProt Q5SHN6, T395C); experiment: nitrocellulose filter binding with [3H]GDP
[2] = target: EF-Tu (T. thermophilus) (Thermus thermophilus, UniProt Q5SHN6); experiment: nitrocellulose filter binding with [3H]GDP

## Nc1nc2c(ncn2[C@@H]2O[C@H](COP(=O)(O)OP(=O)(O)O)[C@@H](O)[C@H]2O)c(=O)[nH]1 [GDP]
[1]
  Kd: 11 nM
[2]
  Kd: 7 nM
